{"source": "patent US9108972B2", "about": "“Salts of DPP-IV inhibitor” (Cadila Healthcare Limited, priority 2011, dated 2015)", "key": {"[1]": {"assay": "Stability study on storage (25° C. ± 2° C./60% ± 5% RH) for 3 months"}, "male C57BLKS/J mice": {"tested_on": "male C57BLKS/J mice", "assay": "Oral glucose tolerance test (OGTT) in male C57 mice", "format": "in vivo", "settings": "for efficacy compared with crystalline monohydrate phosphate salt (SP): acute oral glucose tolerance test in C57 mice, 10 mg/kg PO; for % change in AUC glucose: single dose 10 mg/kg PO with glucose load 3 g/kg, male C57 mice fasted 18 h, AUC for 120 min, vs vehicle control", "description": "Eight to ten weeks old male C57BLKS/J mice obtained from Animal Research Facility of Zydus Research Centre were used. The mice were allowed ad libitum access to chow and water. Animals were on a 12-hour light, 12-hour dark cycle. Protocol for use of animals for conducting this study has been reviewed and approved by Institutional Animal Ethics Committee (IAEC).\nOral glucose tolerance test (OGTT) was performed on these animals. The mice were deprived of food for 18 h and then drug or vehicles were administered with a glucose load (3 g/kg) by oral route. Blood (200 μL) samples were collected at 0, 30, 60, 120 and 240 min. Serum glucose concentrations were determined using commercially available kits purchased from RFCL (New Delhi, India) using spectrophotometric assay. […] The area under the curve for 120 min was calculated, based on which the percentage inhibition was obtained for each treatment."}, "[2]": {"assay": "Stability of the novel salts versus free base (statement, no method given)", "format": "physicochemical", "settings": "compared with the free base; no conditions given"}, "[3]": {"settings": "After 3 Month storage at 25° C. ± 2° C./60% ± 5% RH"}, "[4]": {"settings": "After 3 Month storage at 25° C. ± 2° C./60% ± 5% RH, listed as besylate amorphous"}, "[5]": {"settings": "Initial, listed as besylate amorphous"}, "[6]": {"settings": "After 3 Month storage at 25° C. ± 2° C./60% ± 5% RH, listed as besylate crystalline(II)"}, "[7]": {"settings": "Initial, listed as besylate crystalline(II)"}}}
{"compound": "N[C@@H](CC(=O)N1CCn2c(nnc2C(F)(F)F)C1)Cc1cc(F)c(F)cc1F.O=S(=O)(O)c1ccccc1", "note": "[SBa, amorphous besylate salt of (2R)-4-oxo-4-[3-(trifluoromethyl)-5,6-dihydro[1,2,4]triazolo[4,3-a]pyrazin-7(8H)-yl]-1-(2,4,5-trifluorophenyl)butan-2-amine]", "values": [{"measurement": "Polymorphism XRD", "setting": "[1]; [3]", "result": "No Change"}, {"measurement": "Description", "setting": "[1]; [4]", "result": "white colored powder"}, {"measurement": "Purity (By HPLC)", "setting": "[1]; [4]", "result": 99.52, "unit": "%"}, {"measurement": "Water (by KFR)", "setting": "[1]; [4]", "result": 3.14, "unit": "%"}, {"measurement": "Description", "setting": "[1]; Initial", "result": "white colored powder"}, {"measurement": "Polymorphism XRD", "setting": "[1]; [5]", "result": "amorphous pattern"}, {"measurement": "Purity (By HPLC)", "setting": "[1]; [5]", "result": 99.41, "unit": "%"}, {"measurement": "Water (by KFR)", "setting": "[1]; [5]", "result": 1.01, "unit": "%"}, {"measurement": "efficacy compared with crystalline monohydrate phosphate salt (SP)", "setting": "male C57BLKS/J mice", "result": "better than"}, {"measurement": "% change in AUC glucose", "setting": "male C57BLKS/J mice; 10 mg/kg", "result": "−43.3 ± 1.6", "unit": "%"}]}
{"compound": "N[C@@H](CC(=O)N1CCn2c(nnc2C(F)(F)F)C1)Cc1cc(F)c(F)cc1F.O=C(O)CCCCC(=O)O", "note": "[adipate, adipic acid salt of (2R)-4-oxo-4-[3-(trifluoromethyl)-5,6-dihydro[1,2,4]triazolo[4,3-a]pyrazin-7(8H)-yl]-1-(2,4,5-trifluorophenyl)butan-2-amine]", "values": [{"measurement": "stability of the salt", "setting": "[2]", "result": "very stable"}]}
{"compound": "N[C@@H](CC(=O)N1CCn2c(nnc2C(F)(F)F)C1)Cc1cc(F)c(F)cc1F.O=S(=O)(O)c1ccccc1", "note": "[SBII, crystalline besylate salt(II) of (2R)-4-oxo-4-[3-(trifluoromethyl)-5,6-dihydro[1,2,4]triazolo[4,3-a]pyrazin-7(8H)-yl]-1-(2,4,5-trifluorophenyl)butan-2-amine]", "values": [{"measurement": "Polymorphism XRD", "setting": "[1]; [3]", "result": "No Change"}, {"measurement": "Description", "setting": "[1]; [6]", "result": "Off white colored"}, {"measurement": "Purity (By HPLC)", "setting": "[1]; [6]", "result": 99.97, "unit": "%"}, {"measurement": "Water (by KFR)", "setting": "[1]; [6]", "result": 2.90, "unit": "%"}, {"measurement": "Description", "setting": "[1]; Initial", "result": "white colored powder"}, {"measurement": "Polymorphism XRD", "setting": "[1]; [7]", "result": "Crystalline pattern"}, {"measurement": "Purity (By HPLC)", "setting": "[1]; [7]", "result": 99.87, "unit": "%"}, {"measurement": "Water (by KFR)", "setting": "[1]; [7]", "result": 2.77, "unit": "%"}, {"measurement": "efficacy compared with crystalline monohydrate phosphate salt (SP)", "setting": "male C57BLKS/J mice", "result": "better than"}, {"measurement": "% change in AUC glucose", "setting": "male C57BLKS/J mice; 10 mg/kg", "result": "−45.7 ± 1.5", "unit": "%"}]}
{"compound": "N[C@@H](CC(=O)N1CCn2c(nnc2C(F)(F)F)C1)Cc1cc(F)c(F)cc1F", "note": "[SB, (2R)-4-oxo-4-[3-(trifluoromethyl)-5,6-dihydro[1,2,4]triazolo[4,3-a]pyrazin-7(8H)-yl]-1-(2,4,5-trifluorophenyl)butan-2-amine, reference compound]", "values": [{"measurement": "% change in AUC glucose", "setting": "male C57BLKS/J mice", "result": "−36.5 ± 1.6", "unit": "%"}]}
{"compound": "Cl.N[C@@H](CC(=O)N1CCn2c(nnc2C(F)(F)F)C1)Cc1cc(F)c(F)cc1F", "note": "[Hydrochloride crystalline, hydrochloride salt of (2R)-4-oxo-4-[3-(trifluoromethyl)-5,6-dihydro[1,2,4]triazolo[4,3-a]pyrazin-7(8H)-yl]-1-(2,4,5-trifluorophenyl)butan-2-amine]", "values": [{"measurement": "Description", "setting": "[1]; [3]", "result": "white colored powder"}, {"measurement": "Polymorphism XRD", "setting": "[1]; [3]", "result": "No Change"}, {"measurement": "Purity (By HPLC)", "setting": "[1]; [3]", "result": 99.91, "unit": "%"}, {"measurement": "Water (by KFR)", "setting": "[1]; [3]", "result": 4.01, "unit": "%"}, {"measurement": "Description", "setting": "[1]; Initial", "result": "white colored powder"}, {"measurement": "Polymorphism XRD", "setting": "[1]; Initial", "result": "Crystalline pattern"}, {"measurement": "Purity (By HPLC)", "setting": "[1]; Initial", "result": 99.82, "unit": "%"}, {"measurement": "Water (by KFR)", "setting": "[1]; Initial", "result": 3.54, "unit": "%"}]}
{"compound": "(2R)-4-oxo-4-[3-(trifluoromethyl)-5,6-dihydro[1,2,4]triazolo[4,3-a]pyrazin-7(8H)-yl]-1-(2,4,5-trifluorophenyl)butan-2-amine gentisate [SG]", "values": [{"measurement": "stability of the salt", "setting": "[2]", "result": "very stable"}, {"measurement": "efficacy compared with crystalline monohydrate phosphate salt (SP)", "setting": "male C57BLKS/J mice", "result": "better than"}, {"measurement": "% change in AUC glucose", "setting": "male C57BLKS/J mice", "result": "−39.4 ± 1.8", "unit": "%"}]}
{"compound": "N[C@@H](CC(=O)N1CCn2c(nnc2C(F)(F)F)C1)Cc1cc(F)c(F)cc1F.O=P(O)(O)O", "note": "[SP, (2R)-4-oxo-4-[3-(trifluoromethyl)-5,6-dihydro[1,2,4]triazolo[4,3-a]pyrazin-7(8H)-yl]-1-(2,4,5-trifluorophenyl)butan-2-amine phosphate salt, reference compound]", "values": [{"measurement": "% change in AUC glucose", "setting": "male C57BLKS/J mice", "result": "−31.9 ± 1.8", "unit": "%"}]}
{"compound": "N[C@@H](CC(=O)N1CCn2c(nnc2C(F)(F)F)C1)Cc1cc(F)c(F)cc1F.O=C(O)C(F)(F)F", "note": "[TFA salt, Trifluoroacetic acid salt of (2R)-4-oxo-4-[3-(trifluoromethyl)-5,6-dihydro[1,2,4]triazolo[4,3-a]pyrazin-7(8H)-yl]-1-(2,4,5-trifluorophenyl)butan-2-amine]", "values": [{"measurement": "Description", "setting": "[1]; [3]", "result": "white colored powder"}, {"measurement": "Polymorphism XRD", "setting": "[1]; [3]", "result": "No Change"}, {"measurement": "Purity (By HPLC)", "setting": "[1]; [3]", "result": 97.5, "unit": "%"}, {"measurement": "Water (by KFR)", "setting": "[1]; [3]", "result": 3.45, "unit": "%"}, {"measurement": "Description", "setting": "[1]; Initial", "result": "white colored powder"}, {"measurement": "Polymorphism XRD", "setting": "[1]; Initial", "result": "Crystalline pattern"}, {"measurement": "Purity (By HPLC)", "setting": "[1]; Initial", "result": 97.89, "unit": "%"}, {"measurement": "Water (by KFR)", "setting": "[1]; Initial", "result": 2.77, "unit": "%"}]}
